From US20210369846A1 (priority 2018, published 2021)
Marks after values point to notes of the source that are not given here.

Legend:
[1] = system: HMEC-1 human vascular endothelial cells

O=C(O)CSCCC(F)(F)C(F)(F)C(F)(F)C(F)(F)C(F)(F)C(F)(F)C(F)(F)C(F)(F)F [2a3a]
Maximum Non-Cytotoxic Concentration L929 (L929 mouse fibroblasts): 0.5% | Maximum Non-Cytotoxic Concentration HMEC-1 [1]: 1% | Maximum Non-Hemolytic Concentration (blood): 0.05%

O=C(O)CSCCC(F)(F)C(F)(F)C(F)(F)C(F)(F)C(F)(F)C(F)(F)C(F)(F)C(F)(F)F [2a3c]
Maximum Non-Cytotoxic Concentration L929 (L929 mouse fibroblasts): 0.2% | Maximum Non-Cytotoxic Concentration HMEC-1 [1]: 0.2% | Maximum Non-Hemolytic Concentration (blood): 0.2%

O=C(O)CSCCC(F)(F)C(F)(F)C(F)(F)C(F)(F)C(F)(F)C(F)(F)C(F)(F)C(F)(F)F [2a3e]
Maximum Non-Cytotoxic Concentration L929 (L929 mouse fibroblasts): 0.2% | Maximum Non-Cytotoxic Concentration HMEC-1 [1]: 0.2% | Maximum Non-Hemolytic Concentration (blood): 0.25%

O=C(O)CSCCC(F)(F)C(F)(F)C(F)(F)C(F)(F)C(F)(F)C(F)(F)C(F)(F)C(F)(F)F [2a3f]
Maximum Non-Cytotoxic Concentration L929 (L929 mouse fibroblasts): 0.2% | Maximum Non-Cytotoxic Concentration HMEC-1 [1]: 0.2% | Maximum Non-Hemolytic Concentration (blood): >2.00%

O=C(O)CCCCCSCCC(F)(F)C(F)(F)C(F)(F)C(F)(F)C(F)(F)C(F)(F)C(F)(F)C(F)(F)F [2c3a]
Maximum Non-Cytotoxic Concentration L929 (L929 mouse fibroblasts): 0.5% | Maximum Non-Cytotoxic Concentration HMEC-1 [1]: 0.5% | Maximum Non-Hemolytic Concentration (blood): 0.02%

O=C(O)CCCCCSCCC(F)(F)C(F)(F)C(F)(F)C(F)(F)C(F)(F)C(F)(F)C(F)(F)C(F)(F)F [2c3c]
Maximum Non-Cytotoxic Concentration L929 (L929 mouse fibroblasts): 0.25% | Maximum Non-Cytotoxic Concentration HMEC-1 [1]: 0.5% | Maximum Non-Hemolytic Concentration (blood): 0.25%

O=C(O)CCCCCSCCC(F)(F)C(F)(F)C(F)(F)C(F)(F)C(F)(F)C(F)(F)C(F)(F)C(F)(F)F [2c3e]
Maximum Non-Cytotoxic Concentration L929 (L929 mouse fibroblasts): 0.5% | Maximum Non-Cytotoxic Concentration HMEC-1 [1]: 1% | Maximum Non-Hemolytic Concentration (blood): 0.02%

O=C(O)CCCCCSCCC(F)(F)C(F)(F)C(F)(F)C(F)(F)C(F)(F)C(F)(F)C(F)(F)C(F)(F)F [2c3f]
Maximum Non-Cytotoxic Concentration L929 (L929 mouse fibroblasts): <0.25% | Maximum Non-Cytotoxic Concentration HMEC-1 [1]: 1% | Concentrations with hemolytic properties (blood): above 0.05% | Maximum Non-Hemolytic Concentration (blood): 0.01%

O=C(O)CCCCCSCCC(F)(F)C(F)(F)C(F)(F)C(F)(F)C(F)(F)C(F)(F)C(F)(F)C(F)(F)F [2c3k]
Maximum Non-Cytotoxic Concentration L929 (L929 mouse fibroblasts): 0.25% | Maximum Non-Cytotoxic Concentration HMEC-1 [1]: 1% | Maximum Non-Hemolytic Concentration (blood): 0.05%

O=C(O)CCCCCSCCC(F)(F)C(F)(F)C(F)(F)C(F)(F)C(F)(F)C(F)(F)C(F)(F)C(F)(F)F [2c3l]
Maximum Non-Cytotoxic Concentration L929 (L929 mouse fibroblasts): 0.25* % | Maximum Non-Cytotoxic Concentration HMEC-1 [1]: 0.5% | Maximum Non-Hemolytic Concentration (blood): 0.02%

O=C(O)CCC(=O)OCCC(F)(F)C(F)(F)C(F)(F)C(F)(F)C(F)(F)C(F)(F)F [2i2i3h]
Maximum Non-Cytotoxic Concentration L929 (L929 mouse fibroblasts): 0.1% | Maximum Non-Cytotoxic Concentration HMEC-1 [1]: 0.1% | Maximum Non-Hemolytic Concentration (blood): 0.05%

O=C(O)CCC(=O)OCCC(F)(F)C(F)(F)C(F)(F)C(F)(F)C(F)(F)C(F)(F)F [2i3c]
Maximum Non-Cytotoxic Concentration L929 (L929 mouse fibroblasts): 0.10** % | Maximum Non-Cytotoxic Concentration HMEC-1 [1]: 0.10** % | Maximum Non-Hemolytic Concentration (blood): 0.02%

O=C(O)CCC(=O)OCCC(F)(F)C(F)(F)C(F)(F)C(F)(F)C(F)(F)C(F)(F)F [2i3e]
Maximum Non-Cytotoxic Concentration L929 (L929 mouse fibroblasts): 0.20** % | Maximum Non-Cytotoxic Concentration HMEC-1 [1]: 0.10** % | Maximum Non-Hemolytic Concentration (blood): 0.05%

O=C(O)CCC(=O)OCCC(F)(F)C(F)(F)C(F)(F)C(F)(F)C(F)(F)C(F)(F)F [2i3k]
Maximum Non-Cytotoxic Concentration L929 (L929 mouse fibroblasts): 0.1% | Maximum Non-Cytotoxic Concentration HMEC-1 [1]: 0.1% | Maximum Non-Hemolytic Concentration (blood): 0.1%

O=C(O)CCC(=O)OCCC(F)(F)C(F)(F)C(F)(F)C(F)(F)C(F)(F)C(F)(F)F [2i3l]
Maximum Non-Cytotoxic Concentration L929 (L929 mouse fibroblasts): 0.01** % | Maximum Non-Cytotoxic Concentration HMEC-1 [1]: 0.01** % | Maximum Non-Hemolytic Concentration (blood): 0.05%

O=C(O)CCC(=O)OCCC(F)(F)C(F)(F)C(F)(F)C(F)(F)C(F)(F)C(F)(F)C(F)(F)C(F)(F)F [2j2j3h]
Maximum Non-Cytotoxic Concentration L929 (L929 mouse fibroblasts): 0.25** % | Maximum Non-Cytotoxic Concentration HMEC-1 [1]: 1% | Maximum Non-Hemolytic Concentration (blood): >2.00%

O=C(O)CCC(=O)OCCC(F)(F)C(F)(F)C(F)(F)C(F)(F)C(F)(F)C(F)(F)C(F)(F)C(F)(F)F [2j3a]
Maximum Non-Cytotoxic Concentration L929 (L929 mouse fibroblasts): 0.2% | Maximum Non-Cytotoxic Concentration HMEC-1 [1]: 0.2% | Maximum Non-Hemolytic Concentration (blood): >2.00%

O=C(O)CCC(=O)OCCC(F)(F)C(F)(F)C(F)(F)C(F)(F)C(F)(F)C(F)(F)C(F)(F)C(F)(F)F [2j3k]
Maximum Non-Cytotoxic Concentration L929 (L929 mouse fibroblasts): 0.50* % | Maximum Non-Cytotoxic Concentration HMEC-1 [1]: 0.5% | Concentrations with no hemolytic properties (blood): ≤ 1% | Maximum Non-Hemolytic Concentration (blood): 1%

O=C(O)CCC(=O)OCCC(F)(F)C(F)(F)C(F)(F)C(F)(F)C(F)(F)C(F)(F)C(F)(F)C(F)(F)F [2j3l]
Maximum Non-Cytotoxic Concentration L929 (L929 mouse fibroblasts): 0.10** % | Maximum Non-Cytotoxic Concentration HMEC-1 [1]: 1% | Maximum Non-Hemolytic Concentration (blood): >2.00%

O=C(O)CCCC(=O)OCCC(F)(F)C(F)(F)C(F)(F)C(F)(F)C(F)(F)C(F)(F)F [2k3c]
Maximum Non-Cytotoxic Concentration L929 (L929 mouse fibroblasts): 0.10* % | Maximum Non-Cytotoxic Concentration HMEC-1 [1]: 0.10* % | Maximum Non-Hemolytic Concentration (blood): 0.05%

O=C(O)CCCC(=O)OCCC(F)(F)C(F)(F)C(F)(F)C(F)(F)C(F)(F)C(F)(F)F [2k3e]
Maximum Non-Cytotoxic Concentration L929 (L929 mouse fibroblasts): 0.10* % | Maximum Non-Cytotoxic Concentration HMEC-1 [1]: 0.01* % | Maximum Non-Hemolytic Concentration (blood): 0.05%

O=C(O)CCCC(=O)OCCC(F)(F)C(F)(F)C(F)(F)C(F)(F)C(F)(F)C(F)(F)F [2k3k]
Maximum Non-Cytotoxic Concentration L929 (L929 mouse fibroblasts): 0.20** % | Maximum Non-Cytotoxic Concentration HMEC-1 [1]: 0.10** % | Maximum Non-Hemolytic Concentration (blood): 0.05%

O=C(O)CCCC(=O)OCCC(F)(F)C(F)(F)C(F)(F)C(F)(F)C(F)(F)C(F)(F)F [2k3l]
Maximum Non-Cytotoxic Concentration L929 (L929 mouse fibroblasts): <0.25* % | Maximum Non-Cytotoxic Concentration HMEC-1 [1]: <0.25% | Maximum Non-Hemolytic Concentration (blood): 0.05%

O=C(O)CCCC(=O)OCCC(F)(F)C(F)(F)C(F)(F)C(F)(F)C(F)(F)C(F)(F)C(F)(F)C(F)(F)F [2l3c]
Maximum Non-Cytotoxic Concentration L929 (L929 mouse fibroblasts): 0.5% | Maximum Non-Cytotoxic Concentration HMEC-1 [1]: 0.5% | Maximum Non-Hemolytic Concentration (blood): >2.00%

O=C(O)CCCC(=O)OCCC(F)(F)C(F)(F)C(F)(F)C(F)(F)C(F)(F)C(F)(F)C(F)(F)C(F)(F)F [2l3l]
Maximum Non-Cytotoxic Concentration L929 (L929 mouse fibroblasts): >1.00% | Maximum Non-Cytotoxic Concentration HMEC-1 [1]: >1.00% | Maximum Non-Hemolytic Concentration (blood): >2.00%

O=C(O)CC(F)(F)C(F)(F)C(F)(F)C(F)(F)C(F)(F)C(F)(F)F [2p3c]
Maximum Non-Cytotoxic Concentration L929 (L929 mouse fibroblasts): 0.1% | Maximum Non-Cytotoxic Concentration HMEC-1 [1]: 0.1% | Maximum Non-Hemolytic Concentration (blood): 0.25%

O=C(O)CC(F)(F)C(F)(F)C(F)(F)C(F)(F)C(F)(F)C(F)(F)F [2p3e]
Maximum Non-Cytotoxic Concentration L929 (L929 mouse fibroblasts): 0.1% | Maximum Non-Cytotoxic Concentration HMEC-1 [1]: 0.25% | Maximum Non-Hemolytic Concentration (blood): 0.25%

O=C(O)C(CCC(F)(F)C(F)(F)C(F)(F)C(F)(F)C(F)(F)C(F)(F)C(F)(F)C(F)(F)F)C(=O)O [2s3e]
Maximum Non-Cytotoxic Concentration L929 (L929 mouse fibroblasts): 0.25% | Maximum Non-Cytotoxic Concentration HMEC-1 [1]: 0.25% | Maximum Non-Hemolytic Concentration (blood): 0.1%
